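A five-concentration, 48-hour dose response in 96-well plates underlies each endpoint, interpolated linearly between surrounding concentrations. Here, GI50 denotes the concentration required for 50% inhibition of growth.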 Active and inactive are the calls of the source. Rule as the data show it: active = GI50 up to about 1.1 µM and inactive = higher.
Tests used:
Test in all cases: growth of human tumour cells (NCI), 48 h
RXF 393 = system: RXF 393
A549 = system: A549
CCRF-CEM = system: CCRF-CEM
HCT-15 = system: HCT-15
NCI-H522 = system: NCI-H522
M14 = system: M14
OVCAR-4 = system: OVCAR-4
TK-10 = system: TK-10
T47D = system: T47D
U-251 = system: U-251
HOP-92 = system: HOP-92
A498 = system: A498
Hs-578T = system: Hs-578T
SNB-19 = system: SNB-19
Malme-3M = system: Malme-3M
K562 = system: K562
BT-549 = system: BT-549
OVCAR-5 = system: OVCAR-5
MDA-MB-435 = system: MDA-MB-435
NCI/ADR-RES = system: NCI/ADR-RES

| Compound | GI50 (RXF 393) | GI50 (A549) | GI50 (CCRF-CEM) | GI50 (HCT-15) | GI50 (NCI-H522) | GI50 (M14) | GI50 (OVCAR-4) | GI50 (TK-10) | GI50 (T47D) | GI50 (U-251) | GI50 (HOP-92) | GI50 (A498) | GI50 (Hs-578T) | GI50 (SNB-19) | GI50 (Malme-3M) | GI50 (K562) | GI50 (BT-549) | GI50 (OVCAR-5) | GI50 (MDA-MB-435) | GI50 (NCI/ADR-RES) |
| --- | --- | --- | --- | --- | --- | --- | --- | --- | --- | --- | --- | --- | --- | --- | --- | --- | --- | --- | --- | --- |
| Cc1cc(C)c2c(c1)C/C(=C\c1ccccc1C(=O)O)C2=O | 51.9 µM (inactive) | 68.4 µM (inactive) | 34.6 µM (inactive) | 47.4 µM | 66.2 µM (inactive) | > 100 µM (inactive) | > 100 µM (inactive) | > 100 µM (inactive) | 35.2 µM (inactive) | 7.46 µM (inactive) | 81.8 µM (inactive) | 51.5 µM (inactive) | > 100 µM (inactive) | > 100 µM (inactive) | > 100 µM (inactive) | > 100 µM (inactive) | 29.9 µM (inactive) | > 100 µM (inactive) | – | – |
| COc1ccc(C2=NOC(N)(c3ccc(OC)cc3)C2)cc1 (stereo not drawn) | – | > 100 µM (inactive) | > 100 µM (inactive) | > 100 µM | > 100 µM (inactive) | > 100 µM (inactive) | 86.5 µM (inactive) | > 100 µM (inactive) | – | > 100 µM (inactive) | > 100 µM (inactive) | 29 µM (inactive) | 81.1 µM (inactive) | > 100 µM (inactive) | 66.5 µM (inactive) | > 100 µM (inactive) | > 100 µM (inactive) | > 100 µM (inactive) | > 100 µM (inactive) | > 100 µM (inactive) |
| COc1cc(C)cc2c1c(=O)c1ccccc1n2C | 28.3 µM (inactive) | 40.4 µM (inactive) | 24.4 µM (inactive) | 36.4 µM | 34 µM (inactive) | 34.7 µM (inactive) | 35.3 µM (inactive) | 56.4 µM (inactive) | – | 33.9 µM (inactive) | 31.4 µM (inactive) | 43.3 µM (inactive) | 48.3 µM (inactive) | 54.8 µM (inactive) | 39.7 µM (inactive) | 18.2 µM (inactive) | 37.9 µM (inactive) | 34.8 µM (inactive) | 35.4 µM (inactive) | 33.8 µM (inactive) |
| NC(=O)C(N)Cc1ccc(O)cn1 (stereo not drawn) | > 100 µM (inactive) | > 100 µM (inactive) | > 100 µM (inactive) | > 100 µM | > 100 µM (inactive) | – | > 100 µM (inactive) | > 100 µM (inactive) | – | > 100 µM (inactive) | > 100 µM (inactive) | > 100 µM (inactive) | > 100 µM (inactive) | > 100 µM (inactive) | > 100 µM (inactive) | > 100 µM (inactive) | > 100 µM (inactive) | > 100 µM (inactive) | > 100 µM (inactive) | > 100 µM (inactive) |
| CC(C)(C)c1cc(COc2cc(COc3ccc(-c4c5c(nc6c4CCc4ccc(-c7c8ccccc8nc8ccccc78)cc4-6)-c4cc(-c6c7ccccc7nc7ccccc67)ccc4CC5)cc3)cc(OCc3cc(C(C)(C)C)cc(C(C)(C)C)c3)c2)cc(C(C)(C)C)c1 | – | > 100 µM (inactive) | – | > 100 µM | > 100 µM (inactive) | > 100 µM (inactive) | > 100 µM (inactive) | > 100 µM (inactive) | > 100 µM (inactive) | > 100 µM (inactive) | > 100 µM (inactive) | > 100 µM (inactive) | – | > 100 µM (inactive) | 89.3 µM (inactive) | > 100 µM (inactive) | > 100 µM (inactive) | > 100 µM (inactive) | > 100 µM (inactive) | > 100 µM (inactive) |
| CN1CCN(C(=S)N(C(=O)c2cccs2)C2CCCCC2)CC1 | > 100 µM (inactive) | > 100 µM (inactive) | > 10 µM (inactive) | > 100 µM | > 100 µM (inactive) | > 100 µM (inactive) | > 100 µM (inactive) | > 100 µM (inactive) | > 100 µM (inactive) | > 100 µM (inactive) | > 100 µM (inactive) | – | > 100 µM (inactive) | > 100 µM (inactive) | > 100 µM (inactive) | > 100 µM (inactive) | > 100 µM (inactive) | > 100 µM (inactive) | > 100 µM (inactive) | – |
